Data set [1] is described as follows: Serum stability in normal human serum. The data set is classed as in vitro ADME. As to conditions: 37° C., LCMS, read-out: half-life (t1/2) in normal human serum. How it is done: Peptide stability was assessed in normal human serum (Sigma-Aldrich, NY, USA). The peptides were incubated with the serum in a water bath at 37° C. and aliquots were removed at specific time points. Serum proteins were precipitated after adding 3-fold excess acetonitrile, and proteins were precipitated by centrifugation at 17,000 rpm for 15 min. The supernatants were collected and analyzed by LCMS (4000 QTRAPR, Applied Biosystems) and all data normalized to the initial time point.

The subject of a further data set is Human erythrocytes. In words: Haemolysis assay. The data set is classed as cell-based. The conditions noted are these: 37° C., 1 hour, absorbance at 544 nm. How it is done:
Human erythrocytes were obtained from the Australian Red Cross Blood Service and diluted with PBS (pH 7.4) 1:50 to give a positive control reading of between 1.5-2.0 at 544 nm.
Equal amounts of cells were incubated with various concentrations of peptides and incubated at 37° C. for 1 hour. Cells were pelleted by centrifugation at 17,000 rpm for 5 minutes on a bench top centrifuge and the supernatant was collected. Haemolysis was assessed by reading the absorbance at 544 nm and normalized to 0% (PBS) and 100% (0.1% Triton-X100). This work was done with UQ ethics (200600011) and ARCBS (08-01QLD-07) approval.

The nature of data set [2]: Circular dichroism spectroscopy (helicity). The data set is classed as physicochemical. How it is done:
CD measurements were performed using a Jasco model J-710 spectropolarimeter which was routinely calibrated with (1S)-(+)-10-camphorsulfonic acid. A stock solution of 1-2 mg of peptide was dissolved in 1 mL of water. Separate 500 μL solutions of 50, 100, 200 and 400 μM were then prepared using an appropriate amount of stock solution and making up the different with 10 mM Phosphate Buffer (final pH 7.1). […] Jasco quartz cell over the wavelength range 260-185 nm at 100 nm/min. with a bandwidth of 1.0 nm, response time of 2 s, resolution step width of 1 nm and sensitivity of 20-50 Mdeg. Each spectrum represents the average of 5 scans. Spectra were analyzed using the spectral analysis software and smoothed using ‘adaptive smoothing’ function. Concentrations were determined using the PULCON method. [Wider, Dreier, 2006, J. Am. Chem. Soc. 128:2571-2576]
The incorporation of two lactam bridges induced appreciable helicity, monitored at 222 nm, and was calculated to range between 32-77% helicity. […] This is due to the fact that residues 1-6 (or 1-5 in 6) are not constrained and would not be expected to be in a helical conformation as they feature amino acids that have little or no propensity to adopt helices in proteins. To determine whether the exocyclic regions were the sole cause of low helicity, SEQ ID NO:15 without the N-terminal message was investigated further. This 12-residue peptide features eight residues (K, R, Q) known to favor α-helicity in proteins, and was 60% helical in phosphate buffer by CD spectral analysis. The serine residue is conserved within the sequence of many of these peptides and is known to be a helix breaker.

The target of data set [3] is T1, ORL-1 receptor (Mus musculus, UniProt P35377).
T1 construct: Neuro-2a cells were a gift from Professor John Mattick's laboratory; endogenous in cells; host or cells: Neuro-2a cells
In words: Agonist functional activity assessed by ERK phosphorylation (pERK) in Neuro-2a cells. In kind it is cell-based. How it is done:
(§1) Neuro-2a cells were a gift from Professor John Mattick's laboratory (Institute of Molecular Bioscience, University of Queensland) and were cultured in Gibco® DMEM (Invitrogen, CA, USA) supplemented with 10% FBS (Invitrogen, CA, USA), GIBCO® Pen/Strep (50 units/mL penicillin and 50 μg/mL streptomycin, Invitrogen, CA, USA) and GIBCO® NEAA (1× concentration, Invitrogen, CA, USA). Cells were split 1:10 every 3 days.
(§2) All cells were incubated at 37° C. and 5% CO2. When treated with pertussis toxin (PTX, catalogue number P7208, Sigma-Aldrich, NY, USA), cells were incubated with 500 ng/mL for 15 hours before use. Cells treated with MEK inhibitor PD98059 (catalogue number PHZ1164, Invitrogen, CA, USA) were preincubated with 50 μM for 1 hour before use.
(§3) Cells were placed in 12-well plates (NUNC™, NY, USA) and allowed to adhere for 24-36 h. […]
(§4) Membranes were washed 3×10 minutes with TBE (with 0.1% Tween-20) and incubated with a primary antibody. […] Radiography was quantified using ImageJ (ImageI 1.36b, NIH).
(§5) pERK and total ERK concentrations were determined using a modified protocol for the AlphaScreen Surefire Assay. […] The ratio of pERK to total ERK was determined using equation 1 and normalized to control. […]
(§6) Concentration responses were analyzed using non-linear regression (variable slope) (Prism5, GraphPad Software) and data is presented as either EC50 (for agonists) or IC50 (antagonists). […]

The nature of a further data set: circular dichroism. As to conditions: 10 mM phosphate; pH 7.4; 22 °C; 50-400 uM.
Data set [4] addresses T1, ORL-1 receptor. In words: Antagonist functional activity assessed by ERK phosphorylation (pERK) in Neuro-2a cells challenged with 100 nM nociceptin(1-17)-NH2. In kind it is cell-based. As for the experimental part:
as §1, §2, §3, §4, §5, §6

The subject of the next data set is C57BL/6 mice. Nature of the data set: Anti-nociceptive activity in mice, hot plate front paw withdrawal latency. In kind it is in vivo. As to conditions: co-administered 200 pmol with SEQ ID NO:8 (200 pmol). How it is done: Mice (C57BL/6; n=45) were brought into the experimental room for at least 30 minutes prior to testing. They were then individually placed on an accredited hot plate heated to 53±0.54° C. and timed until any front paw withdrawal, licking or jumping behaviour was recorded (baseline response). Mice were not left on the hot plate for longer than 30 sec. […] Mice were then individually placed on the hot plate again at time points 1, 5, 15, 30, 45 and 60 min post injection. Each test was video monitored.
In a parallel experiment, agonist of SEQ ID NO:8 was co-administered with the helical antagonist of SEQ ID NO:13, where upon the increased paw withdrawal latency produced by agonist of SEQ ID NO:8 alone was abolished. This confirms that the helix constrained peptide of SEQ ID NO:13 is a potent antagonist of SEQ ID NO:8 in vivo.

T1 sequence (P35377 whole entry): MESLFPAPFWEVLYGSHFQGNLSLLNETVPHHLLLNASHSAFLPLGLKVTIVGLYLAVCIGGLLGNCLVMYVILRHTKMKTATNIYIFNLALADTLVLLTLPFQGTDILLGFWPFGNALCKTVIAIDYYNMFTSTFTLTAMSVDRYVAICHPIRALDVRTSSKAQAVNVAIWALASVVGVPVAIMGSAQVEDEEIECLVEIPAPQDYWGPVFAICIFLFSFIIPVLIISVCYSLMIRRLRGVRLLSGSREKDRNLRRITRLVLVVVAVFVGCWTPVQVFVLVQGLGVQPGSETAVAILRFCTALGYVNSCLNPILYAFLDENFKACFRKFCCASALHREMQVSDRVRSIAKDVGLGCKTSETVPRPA

As for `CC(C)C[C@H](NC(=O)[C@H](CCCCN)NC(=O)[C@H](CCCN=C(N)N)NC(=O)[C@H](C)NC(=O)[C@H](CO)NC(=O)[C@H](CCCCN)NC(=O)[C@H](CCCN=C(N)N)NC(=O)[C@H](C)NC(=O)CNC(=O)[C@@H](NC(=O)[C@H](Cc1ccccc1)NC(=O)CNC(=O)CNC(=O)[C@@H](N)Cc1ccccc1)[C@@H](C)O)C(=O)N[C@@H](C)C(=O)N[C@@H](CC(N)=O)C(=O)N[C@@H](CCC(N)=O)C(=O)O` [SEQ ID NO:1, reference compound], the half-life in data set [1] is not above 1 h. In addition, the haemolytic activity result in the data set with Human erythrocytes is “Neither of the cyclic peptides tested (SEQ ID NOs:7 AND 8), nor the unconstrained nociceptin(1-17)-OH (SEQ ID NO:1) had any haemolytic activity”.

`C[C@@H]1NC(=O)[C@@H](NC(=O)[C@H](CCCCN)NC(=O)[C@H](CCCN=C(N)N)NC(=O)[C@@H]2CC(=O)NCCCC[C@H](NC(=O)CNC(=O)[C@@H](NC(=O)[C@H](Cc3ccccc3)NC(=O)CNC(=O)CNC(=O)[C@@H](N)Cc3ccccc3)[C@@H](C)O)C(=O)N[C@@H](CCCN=C(N)N)C(=O)N[C@@H](CCCCN)C(=O)N[C@@H](CO)C(=O)N2)CCCCNC(=O)C[C@@H](C(N)=O)NC(=O)[C@H](CCC(N)=O)NC(=O)[C@H](CC(N)=O)NC1=O` [SEQ ID NO:7, H-FGGFTG[KRKSD]RK[KANQD]-NH2]: the half-life in data set [1] was more than 6 h. Besides, the haemolytic activity result with Human erythrocytes is recorded as “Neither of the cyclic peptides tested (SEQ ID NOs:7 AND 8), nor the unconstrained nociceptin(1-17)-OH (SEQ ID NO:1) had any haemolytic activity”.

Consider `C[C@@H](O)[C@H](NC(=O)[C@H](Cc1ccc(F)cc1)NC(=O)CNC(=O)CNC(=O)[C@@H](N)Cc1ccccc1)C(=O)NCC(=O)N[C@H]1CCCCNC(=O)C[C@@H](C(=O)N[C@@H](CCCN=C(N)N)C(=O)N[C@@H](CCCCN)C(=O)N[C@H]2CCCCNC(=O)C[C@@H](C(N)=O)NC(=O)[C@H](CCC(N)=O)NC(=O)[C@H](CC(N)=O)NC(=O)[C@H](CCCCN)NC2=O)NC(=O)[C@H](CO)NC(=O)[C@H](CCCCN)NC(=O)[C@H](CCCN=C(N)N)NC1=O` [SEQ ID NO:8, H-FGGF(4-F)TG[KRKSD]RK[KKNQD]-NH2], for which the half-life in data set [1] was more than 6 h. For the same compound, the haemolytic activity entry in the data set on Human erythrocytes is reported as “Neither of the cyclic peptides tested (SEQ ID NOs:7 AND 8), nor the unconstrained nociceptin(1-17)-OH (SEQ ID NO:1) had any haemolytic activity”.

In general, Emax refers to the size of the effect at its maximum, as opposed to the concentration needed. In the case of `CC(C)C[C@H](NC(=O)[C@H](CCCCN)NC(=O)[C@H](CCCNC(=N)N)NC(=O)[C@H](C)NC(=O)[C@H](CO)NC(=O)[C@H](CCCCN)NC(=O)[C@H](CCCNC(=N)N)NC(=O)[C@H](C)NC(=O)CNC(=O)[C@@H](NC(=O)[C@H](Cc1ccccc1)NC(=O)CNC(=O)CNC(=O)[C@@H](N)Cc1ccccc1)[C@@H](C)O)C(=O)N[C@@H](C)C(=O)N[C@@H](CC(N)=O)C(=O)N[C@@H](CCC(N)=O)C(=O)O` [compound 1], the “fH (buffer)” value in data set [2] (10 mM phosphate buffer (pH 7.4) at 22° C., fH calculated based on θ at 222 nm) was 0.02. Besides, the “fH (TFE*)” value in data set [2] (buffer: TFE 50:50, 22° C.) is 0.15. In addition, at ORL-1 receptor [3] (N2a), the Emax came out at 90 ± 7%. The compound further showed a helicity in the data set “circular dichroism” of 0.02 frac.

“Ac-[KRKSD]RK[KKNQD]-NH2 (XRKSXRKXKNQX; N-acetyl, cyclic lactams, C-amide) [SEQ ID NO:15]” registered a helicity in data set [2] (phosphate buffer, CD monitored at 222 nm) of 60%.

With “BzlGGGF(4-F)TG[KRKSD]RK[KKNQD]-NH2 (XGGXTGXRKSXRKXKNQX; N-benzyl, 4-F-Phe, cyclic lactams, C-amide) [SEQ ID NO:13]”, in the data set with ORL-1 receptor [3] (1 μM), the “agonist activity at single point concentration” value was “neither showed significant agonist activity”. In addition, in the data set with ORL-1 receptor [4] (constrained relative to unconstrained analogue), the “improvement in antagonist activity (fold)” value is recorded as “over four-fold”. In addition, in the data set on C57BL/6 mice, the “effect on increased paw withdrawal latency produced by agonist SEQ ID NO:8” value is recorded as “abolished”.

For “BzlGlyGGFT[KARKD][KRKLD]-NH2 (XGGFTXARKXXRKLX; N-benzyl, cyclic lactams, C-amide) [SEQ ID NO:14]”, in the data set with ORL-1 receptor [4] (up to 3 μM), the antagonist activity result is recorded as “abolished antagonist activity”.

The values are drawn from US8921306B2 (The University of Queensland, priority 2010, dated 2014).
